Reference: patent US20240246967A1, “AXL COMPOUNDS” (ARCUS BIOSCIENCES, INC., priority 2021, published 2024)

Key:
[1] = target: T1, Axl (Homo sapiens, UniProt P30530); assay: HTRF KinEASE-TK biochemical potency assay, AXL; parameters: purchased Invitrogen; conditions: 5 nM AXL, 700 μM ATP, 800 nM TK Substrate-biotin
T1 sequence (P30530 26-894): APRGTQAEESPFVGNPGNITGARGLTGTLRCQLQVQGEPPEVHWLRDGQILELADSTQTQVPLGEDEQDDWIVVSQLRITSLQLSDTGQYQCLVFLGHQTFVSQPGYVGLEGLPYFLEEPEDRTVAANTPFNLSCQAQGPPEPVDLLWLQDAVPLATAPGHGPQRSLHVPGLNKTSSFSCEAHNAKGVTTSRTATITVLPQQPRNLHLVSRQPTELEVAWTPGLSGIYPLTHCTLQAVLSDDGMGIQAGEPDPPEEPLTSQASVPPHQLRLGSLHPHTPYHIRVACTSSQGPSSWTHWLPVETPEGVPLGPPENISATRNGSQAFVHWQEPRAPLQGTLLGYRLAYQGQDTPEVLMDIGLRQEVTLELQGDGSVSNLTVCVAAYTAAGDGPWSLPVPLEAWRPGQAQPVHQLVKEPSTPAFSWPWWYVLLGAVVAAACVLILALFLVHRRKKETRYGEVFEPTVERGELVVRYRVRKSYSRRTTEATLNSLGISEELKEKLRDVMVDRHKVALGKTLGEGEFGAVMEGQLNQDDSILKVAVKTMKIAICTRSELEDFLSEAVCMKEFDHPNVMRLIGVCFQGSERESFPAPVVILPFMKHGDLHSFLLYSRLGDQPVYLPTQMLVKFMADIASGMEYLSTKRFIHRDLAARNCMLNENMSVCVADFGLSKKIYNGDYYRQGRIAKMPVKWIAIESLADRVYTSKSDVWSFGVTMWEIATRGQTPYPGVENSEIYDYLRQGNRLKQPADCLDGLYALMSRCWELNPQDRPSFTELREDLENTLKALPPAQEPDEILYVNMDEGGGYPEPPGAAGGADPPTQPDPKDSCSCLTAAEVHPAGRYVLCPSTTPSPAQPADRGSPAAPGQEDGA
Outline: (§1)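 HTRF 665/620 nm read-out after streptavidin-XL665/anti-phosphotyrosine cryptate detection (1 h RT). Final reaction: 5 nM AXL or 1 nM TYRO3/MER, 800 nM TK substrate-biotin, 700 μM ATP, pH 7.4 HEPES buffer, 1% DMSO, 2 h RT, after 1 h enzyme–compound preincubation.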

[2] = target: T2, human TYRO3 (Homo sapiens, UniProt Q06418); assay: HTRF KinEASE-TK biochemical potency assay, TYRO3; conditions: 1 nM TYRO3, 700 μM ATP, 800 nM TK Substrate-biotin
T2 construct: purchased Invitrogen
T2 sequence (Q06418 41-890): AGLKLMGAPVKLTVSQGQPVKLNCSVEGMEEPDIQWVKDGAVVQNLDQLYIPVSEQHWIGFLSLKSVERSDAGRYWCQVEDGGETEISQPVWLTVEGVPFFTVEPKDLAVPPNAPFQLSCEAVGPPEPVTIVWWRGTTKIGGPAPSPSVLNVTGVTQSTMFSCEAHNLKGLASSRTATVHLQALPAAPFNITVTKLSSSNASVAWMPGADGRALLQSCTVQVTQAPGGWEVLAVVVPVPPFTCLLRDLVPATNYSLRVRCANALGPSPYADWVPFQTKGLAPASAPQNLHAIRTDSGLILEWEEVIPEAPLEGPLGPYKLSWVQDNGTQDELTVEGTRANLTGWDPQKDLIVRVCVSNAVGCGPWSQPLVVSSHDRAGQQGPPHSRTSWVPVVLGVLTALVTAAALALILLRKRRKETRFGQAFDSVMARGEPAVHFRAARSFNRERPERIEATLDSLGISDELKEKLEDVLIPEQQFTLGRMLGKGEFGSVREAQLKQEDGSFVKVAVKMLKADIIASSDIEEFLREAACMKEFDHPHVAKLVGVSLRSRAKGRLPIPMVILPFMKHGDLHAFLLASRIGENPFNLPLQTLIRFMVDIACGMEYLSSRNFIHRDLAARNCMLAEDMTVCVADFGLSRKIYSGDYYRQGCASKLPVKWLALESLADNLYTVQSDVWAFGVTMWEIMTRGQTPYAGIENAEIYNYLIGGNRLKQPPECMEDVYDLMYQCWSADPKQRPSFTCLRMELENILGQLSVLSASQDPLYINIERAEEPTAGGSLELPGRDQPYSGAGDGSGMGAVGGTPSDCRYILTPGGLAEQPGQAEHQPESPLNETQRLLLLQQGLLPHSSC
Outline: as §1

Compound | IC50 [1] [nM] | IC50 [2] [nM]
NS(=O)(=O)c1ccc(-c2n[nH]c3ncc(-c4ccc5c(c4)CCN(C4CCCC4)CC5)cc23)cc1Cl [Example 92, 2-Chloro-4-(5-(3-cyclopentyl-2,3,4,5-tetrahydro-1H-benzo[d]azepin-7-yl)-1H-pyrazolo[3,4-b]pyridin-3-yl)benzenesulfonamide] | < 100 | 100 to 1000
NC(=O)c1ccc(-c2n[nH]c3ncc(-c4ccc5c(c4)CCC(N4CCCC4)CC5)cc23)cc1F (stereo not shown) [Example 81, 2-Fluoro-4-(5-(7-(pyrrolidin-1-yl)-6,7,8,9-tetrahydro-5H-benzo[7]annulen-2-yl)-1H-pyrazolo[3,4-b]pyridin-3-yl)benzamide] | < 100 | < 100
COCCNC(=O)c1ccc(-c2n[nH]c3ncc(-c4ccc5c(c4)CCC(C)(N4CCC[C@H]4C)CC5)cc23)cc1 (stereo partly drawn) [Example 72, N-(2-Methoxyethyl)-4-(5-{7-methyl-7-[(2R)-2-methylpyrrolidin-1-yl]-6,7,8,9-tetrahydro-5H-benzo[7]annulen-2-yl}-1H-pyrazolo[3,4-b]pyridin-3-yl)benzamide] | < 100 | 100 to 1000
COC1CCN(C(=O)c2ccc(-c3n[nH]c4ncc(-c5ccc6c(c5)CC[C@@H](N5CCCC5)CC6)cc34)cc2Cl)CC1 [Example 66, (S)-(2-Chloro-4-(5-(7-(pyrrolidin-1-yl)-6,7,8,9-tetrahydro-5H-benzo[7]annulen-2-yl)-1H-pyrazolo[3,4-b]pyridin-3-yl)phenyl)(4-methoxypiperidin-1-yl)methanone] | < 100 | < 100
O=C(c1ccc(-c2n[nH]c3ncc(-c4ccc5c(c4)CC[C@@H](N4CCCC4)CC5)cc23)cc1Cl)N1CCC(O)CC1 [Example 85, (S)-(2-Chloro-4-(5-(7-(pyrrolidin-1-yl)-6,7,8,9-tetrahydro-5H-benzo[7]annulen-2-yl)-1H-pyrazolo[3,4-b]pyridin-3-yl)phenyl)(4-hydroxypiperidin-1-yl)methanone] | < 100 | < 100
CCC1(N2CCC[C@H]2C)CCc2ccc(-c3cnc4[nH]nc(-c5ccc(C(N)=O)c(Cl)c5)c4c3)cc2CC1 (stereo partly drawn) [Example 73, 2-Chloro-4-(5-{7-ethyl-7-[(2R)-2-methylpyrrolidin-1-yl]-6,7,8,9-tetrahydro-5H-benzo[7]annulen-2-yl}-1H-pyrazolo[3,4-b]pyridin-3-yl)benzamide] | < 100 | < 100
NC(=O)c1ccc(-c2n[nH]c3ncc(-c4ccc5c(c4)CCC(N4CCCC4)CC5)cc23)cc1 (stereo not shown) [Example 78, 4-(5-(7-(Pyrrolidin-1-yl)-6,7,8,9-tetrahydro-5H-benzo[7]annulen-2-yl)-1H-pyrazolo[3,4-b]pyridin-3-yl)benzamide] | < 100 | < 100
CC1(N2CCOCC2)CCc2ccc(-c3cnc4[nH]nc(-c5ccc(S(=O)(=O)C6CC6)cc5)c4c3)cc2CC1 (stereo not shown) [Example 2, 4-(2-{3-[4-(Cyclopropanesulfonyl)phenyl]-1H-pyrazolo[3,4-b]pyridin-5-yl}-7-methyl-6,7,8,9-tetrahydro-5H-benzo[7]annulen-7-yl)morpholine] | > 1000 | > 1000

Next, values leading:

IC50 [1] [nM] | IC50 [2] [nM] | Compound
< 100 | 100 to 1000 | COC1CCN(C(=O)c2ccc(-c3n[nH]c4ncc(-c5ccc6c(c5)CCC(C)(N5CCC[C@H]5C)CC6)cc34)cc2)CC1 (stereo partly drawn) [Example 89, (4-Methoxypiperidin-1-yl)(4-(5-(7-methyl-7-((R)-2-methylpyrrolidin-1-yl)-6,7,8,9-tetrahydro-5H-benzo[7]annulen-2-yl)-1H-pyrazolo[3,4-b]pyridin-3-yl)phenyl)methanone]
< 100 | < 100 | NC(=O)c1ccc(-c2n[nH]c3ncc(-c4ccc5c(c4)CCC(N4CCCC4)CC5)cc23)cc1Cl (stereo not shown) [Example 77, 2-Chloro-4-(5-(7-(pyrrolidin-1-yl)-6,7,8,9-tetrahydro-5H-benzo[7]annulen-2-yl)-1H-pyrazolo[3,4-b]pyridin-3-yl)benzamide]
< 100 | 100 to 1000 | COc1cc(-c2n[nH]c3ncc(-c4ccc5c(c4)CCC(C)(N4CCC[C@H]4C)CC5)cc23)ccc1S(N)(=O)=O (stereo partly drawn) [Example 87, 2-Methoxy-4-(5-(7-methyl-7-((R)-2-methylpyrrolidin-1-yl)-6,7,8,9-tetrahydro-5H-benzo[7]annulen-2-yl)-1H-pyrazolo[3,4-b]pyridin-3-yl)benzenesulfonamide]
< 100 | < 100 | COC1CCN(C(=O)c2ccc(-c3n[nH]c4ncc(-c5ccc6c(c5)CCC(C)(N5CCC[C@H]5C)CC6)cc34)cc2Cl)CC1 (stereo partly drawn) [Example 67, 1-[2-Chloro-4-(5-{7-methyl-7-[(2R)-2-methylpyrrolidin-1-yl]-6,7,8,9-tetrahydro-5H-benzo[7]annulen-2-yl}-1H-pyrazolo[3,4-b]pyridin-3-yl)benzoyl]-4-methoxypiperidine]
< 100 | < 100 | NC(=O)c1ccc(-c2n[nH]c3ncc(-c4ccc5c(c4)CC[C@@H](N4CCCC4)CC5)cc23)cc1Cl [Example 84, (S)-2-Chloro-4-(5-(7-(pyrrolidin-1-yl)-6,7,8,9-tetrahydro-5H-benzo[7]annulen-2-yl)-1H-pyrazolo[3,4-b]pyridin-3-yl)benzamide]
< 100 | 100 to 1000 | C[C@@H]1CCCN1C1(C)CCc2ccc(-c3cnc4[nH]nc(-c5ccc(C(=O)N6CCC6)cc5)c4c3)cc2CC1 (stereo partly drawn) [Example 76, (2R)-1-(2-{3-[4-(Azetidine-1-carbonyl)phenyl]-1H-pyrazolo[3,4-b]pyridin-5-yl}-7-methyl-6,7,8,9-tetrahydro-5H-benzo[7]annulen-7-yl)-2-methylpyrrolidine]
